Legend:
Format in all cases: cell-based, human
K562 cells [1] = assay: γH2AX immunofluorescence, K562
Description: Cells were seeded at densities of 1×10^6/mL in 24 well culture (Nalge Nunc, New York, USA) and treated with hydroxytyrosol (0, 20, 100 μM), for 24 hours at 37° C., 5% (v/v) CO2. Cells were then stained and quantified for the number of γH2AX foci per cell nuclei. Briefly, using cytofunnels and filter cards, aliquots of […] were cytospun (Shandon, Inc.) for 5 minutes at 500 rpm onto Poly-o-lysine slides (Menzel-Glaser, Germany). All cells were then fixed for 10 minutes with 4% paraformaldehyde (Sigma-Aldrich, USA), washed once for five minutes with PBS without calcium and magnesium and permeabilized using 0.1% Triton X-100(Sigma-Aldrich, USA) for 10 minutes at room temperature. […]
Images were acquired using a Zeiss LSM 510 Meta laser confocal microscope fitted with a Z-stage motor and 63× oil plan apochromat objective with a refractive index of 1.40. […] Images required for γH2AX quantification were acquired in 512×512 pixel format and loaded into Image J (Fiji version 1.44a). […]
Image J software was used for the quantification of foci in all experiments. […] Now clearly defined nuclear regions were selected, numbers of foci were quantified by using the find maxima tool. […] Foci were now quantified as a total number for all cells selected. The average number of foci per nucleus was calculated and recorded into Excel spread sheets (Microsoft, Redmond, Wash., USA). […]

K562 cells [2] = assay: Western blotting of histone methylation, K562; details: K562, 100 μM, 24 hours
PBMC = assay: Western blotting of histone methylation, PBMC; details: 100 μM, 24 hours
K562 cells [3] = assay: Apo-ONE Homogeneous Caspase 3/7 assay, K562
Description: Apoptosis was determined by cell lysis prior to measuring caspase-3/7 enzymatic activity with Apo-ONE Homogeneous Caspase-3/7 Assay kit (Promega, Wis., USA), according to the manufacturer's instructions. Following determination of growth inhibition as described above, Apo-1 substrate/buffer mix was added to each well at a ratio of 1:1 and incubated for 4 hours on a rotating platform in the dark at 22° C. The fluorescence intensity (λex=485 nm and λem=525 nm) was determined on a Victor3 multilabel plate counter (PerkinElmer, Waltham, Mass., USA). Apoptosis was reported as the change in fluorescence over 4 hours and after subtraction of the media control.

K562 cells [4] = assay: Cell viability (Cell-Titer Blue), K562
Description: Cells were seeded at densities of 7,500 cells/in black flat bottom 96-well plates (Nalge Nunc, Penfield, N.Y., USA) and treated with a dose response of hydroxytyrosol (0-200 μM), oleuropein (0-800 μM), tyrosol (0-1000 μM) and homovanilic acid (0-1000 μM) for 24 hours at 37° C., 5% (v/v) CO2. Cell viability was determined after 24 hour exposure to hydroxytyrosol and measured using the Cell-Titer Blue® Assay kit (Promega, Madison, Wis., USA) according to the manufacturer's instructions. Cell-Titer Blue reagent was added to each well and incubated for 4 hours at 37° C., 5% CO2, before reading fluorescence intensity (550 nm excitation; 615 nm emission) using the Perkin Elmer Victor3 (Perkin Elmer, MA, USA) multi-label plate reader. Alternatively Cells were seeded at densities of 7,500 cells/in black flat bottom 96-well plates (Nalge Nunc, Penfield, N.Y., USA) and treated with 100 μM hydroxytyrosol for 24 hours at 37° C., 5% (v/v) CO2. […] Fluorescence intensity (λex=550 nm and λem=615 nm) was determined using a Perkin Elmer Victor3 multilabel microplate counter (PerkinElmer, Waltham, Mass., USA). Data were expressed as % relative cell viability compared to untreated cells after correction of subtracting the media control fluorescence reading.

In the case of OCCc1ccc(O)c(O)c1 [HT, 4-(2-hydroxyethyl)-1,2-benzenediol], the “DNA double-strand breaks (γH2AX accumulation)” value (K562 cells [1]; K562, 0, 20, 100 μM, 24 hours) is reported as “induces significant DNA-double strand breaks”, the “effect on DNA damage by anti-cancer modalities (doxorubicin, vinblastine, mitomycin C, UVA, γ-radiation)” value (K562 cells [1]; K562, 100 μM hydroxytyrosol pre-treatment 24 hours) is reported as “enhances the DNA damaging effects” and the “histone H3 lysine 9 (H3K9) di-methylation” value (K562 cells [2]) is reported as “increased”. The “histone H3 lysine 9 (H3K9) di-methylation” value (PBMC) was “decreased”, the “caspase 3/7 apoptotic activity” value (K562 cells [3]; K562, hydroxytyrosol 24 hours) was “significant dose dependent increase” and the “caspase 3/7 mediated apoptosis” value (K562 cells [3]; K562, hydroxytyrosol or Formulation 2 (4× diluted), FIG. 25) was “significantly induce caspase 3/7 mediated apoptosis”. The “cell viability of K562 cells” value (K562 cells [4]; 20 or 100 μM, 24 hours) was “significantly reduced in a dose dependent manner” and the “effect on the cytotoxicity of doxorubicin” value (K562 cells [4]; K562, hydroxytyrosol pre-treatment 24 hours, then doxorubicin) was “enhances the cytotoxicity of doxorubicin”.
